{"source": "the NIST ThermoML archive (doi:10.1021/acs.jced.5b00242)", "key": {"[1]": {"details": "Liquid; for viscosity: 101 kPa, Stabinger Viscometer; for mass density: 101.33 kPa, Vibrating tube method"}, "[2]": {"test": "refractive index (Na D-line) (dimensionless)", "details": "101 kPa, Liquid, Standard Abbe refractometry"}}, "note": "± gives the expanded uncertainty stated by the source.", "data": [{"smiles": "CC[n+]1ccn(C)c1.N[C@@H](CO)C(=O)[O-]", "note": "[3-ethyl-1-methyl-1H-imidazolium L-serinate]", "values": [{"measurement": "viscosity", "setting": "[1]; 293.15 K", "value": "3796.8 ± 560", "unit": "mPa·s"}, {"measurement": "mass density", "setting": "[1]; 293.15 K", "value": "1206.8 ± 14", "unit": "kg/m3"}, {"measurement": "viscosity", "setting": "[1]; 298.15 K", "value": "2235.5 ± 290", "unit": "mPa·s"}, {"measurement": "mass density", "setting": "[1]; 298.15 K", "value": "1203.7 ± 14", "unit": "kg/m3"}, {"measurement": "viscosity", "setting": "[1]; 303.15 K", "value": "1376.2 ± 160", "unit": "mPa·s"}, {"measurement": "mass density", "setting": "[1]; 303.15 K", "value": "1200.5 ± 14", "unit": "kg/m3"}, {"measurement": "viscosity", "setting": "[1]; 308.15 K", "value": "882.82 ± 88", "unit": "mPa·s"}, {"measurement": "mass density", "setting": "[1]; 308.15 K", "value": "1197.3 ± 14", "unit": "kg/m3"}, {"measurement": "viscosity", "setting": "[1]; 313.15 K", "value": "588.27 ± 51", "unit": "mPa·s"}, {"measurement": "mass density", "setting": "[1]; 313.15 K", "value": "1194 ± 14", "unit": "kg/m3"}, {"measurement": "viscosity", "setting": "[1]; 318.15 K", "value": "405.12 ± 30", "unit": "mPa·s"}, {"measurement": "mass density", "setting": "[1]; 318.15 K", "value": "1190.9 ± 14", "unit": "kg/m3"}, {"measurement": "viscosity", "setting": "[1]; 323.15 K", "value": "287.6 ± 18", "unit": "mPa·s"}, {"measurement": "mass density", "setting": "[1]; 323.15 K", "value": "1187.8 ± 14", "unit": "kg/m3"}, {"measurement": "viscosity", "setting": "[1]; 328.15 K", "value": "209.91 ± 11", "unit": "mPa·s"}, {"measurement": "mass density", "setting": "[1]; 328.15 K", "value": "1184.7 ± 14", "unit": "kg/m3"}, {"measurement": "viscosity", "setting": "[1]; 333.15 K", "value": "157.29 ± 7.5", "unit": "mPa·s"}, {"measurement": "mass density", "setting": "[1]; 333.15 K", "value": "1181.7 ± 14", "unit": "kg/m3"}, {"measurement": "viscosity", "setting": "[1]; 338.15 K", "value": "119.86 ± 5", "unit": "mPa·s"}, {"measurement": "mass density", "setting": "[1]; 338.15 K", "value": "1178.7 ± 14", "unit": "kg/m3"}, {"measurement": "viscosity", "setting": "[1]; 343.15 K", "value": "93.36 ± 3.5", "unit": "mPa·s"}, {"measurement": "mass density", "setting": "[1]; 343.15 K", "value": "1175.7 ± 14", "unit": "kg/m3"}, {"measurement": "viscosity", "setting": "[1]; 348.15 K", "value": "74.03 ± 2.5", "unit": "mPa·s"}, {"measurement": "mass density", "setting": "[1]; 348.15 K", "value": "1172.8 ± 14", "unit": "kg/m3"}, {"measurement": "viscosity", "setting": "[1]; 353.15 K", "value": "59.91 ± 1.9", "unit": "mPa·s"}, {"measurement": "mass density", "setting": "[1]; 353.15 K", "value": "1169.7 ± 14", "unit": "kg/m3"}, {"measurement": "refractive index", "setting": "[2]; 293.15 K", "value": "1.52699 ± 0.0041"}, {"measurement": "refractive index", "setting": "[2]; 298.15 K", "value": "1.52565 ± 0.0041"}, {"measurement": "refractive index", "setting": "[2]; 303.15 K", "value": "1.52429 ± 0.0041"}, {"measurement": "refractive index", "setting": "[2]; 308.15 K", "value": "1.52294 ± 0.0041"}, {"measurement": "refractive index", "setting": "[2]; 313.15 K", "value": "1.52159 ± 0.0041"}, {"measurement": "refractive index", "setting": "[2]; 318.15 K", "value": "1.52022 ± 0.0041"}, {"measurement": "refractive index", "setting": "[2]; 323.15 K", "value": "1.51887 ± 0.0041"}, {"measurement": "refractive index", "setting": "[2]; 328.15 K", "value": "1.51755 ± 0.0041"}, {"measurement": "refractive index", "setting": "[2]; 333.15 K", "value": "1.5162 ± 0.0041"}, {"measurement": "refractive index", "setting": "[2]; 338.15 K", "value": "1.51486 ± 0.0041"}, {"measurement": "refractive index", "setting": "[2]; 343.15 K", "value": "1.51353 ± 0.0041"}, {"measurement": "refractive index", "setting": "[2]; 348.15 K", "value": "1.5122 ± 0.0041"}, {"measurement": "refractive index", "setting": "[2]; 353.15 K", "value": "1.51084 ± 0.0041"}]}]}
